Results: patent US20230381178A1, “METHODS FOR IMPROVING RENAL FUNCTION WITH A COMBINATION OF A BET BROMODOMAIN INHIBITOR AND A SODIUM DEPENDENT GLUCOSE TRANSPORT 2 INHIBITOR” (Resverlogix Corp., priority 2020, published 2023)

What was measured:
[1] = patients with established cardiovascular disease and eGFR<60 mL/min/1.73 m^2; monotherapy; p=0.04 vs. baseline (Kulikowski et al 2017); cited from earlier work
[2] = BETonMACE, T2DM patients with a recent ACS (Ray et al. 2020); cited from earlier work
[3] = BETonMACE Phase 3 trial post-hoc analysis: eGFR (Cockcroft-Gault, serum creatinine) from baseline to last visit on treatment; assay type: in vivo, human
Procedure: Apabetalone (RVX-208) was evaluated in a recently completed clinical Phase 3 trial (BETonMACE; NCT02586155) for the effect on MACE in type 2 diabetes patients with low HDL cholesterol (below 40 mg/dL for males and below 45 mg/dL for females) and a recent acute coronary syndrome (ACS) (preceding 7-90 days). All patients received high intensity statin treatment or maximum tolerated statin treatment, which was 20-40 mg daily or a maximum daily dose of 40 mg for rosuvastatin or 40-80 mg daily or a maximum daily dose of 80 mg for atorvastatin.
Patients (n=2425) with ACS in the preceding 7 to 90 days, with type 2 diabetes and low HDL cholesterol (≤40 mg/dl for men, <45 mg/dl for women), receiving intensive or maximum-tolerated therapy with atorvastatin or rosuvastatin, were assigned in double-blind fashion to receive apabetalone 100 mg orally twice daily or matching placebo. Baseline characteristics include female sex (25%), myocardial infarction as index ACS event(74%), coronary revascularization for index ACS (76%), treatment with dual anti-platelet therapy (87%) and renin-angiotensin system inhibitors (91%), median LDL cholesterol 65 mg per deciliter, and median HbA1c 7.3%. The primary efficacy measure is time to first occurrence of cardiovascular death, non-fatal myocardial infarction, or stroke. The study enrolled 2425 patients and the MACE outcome population consisted of 2418 patients.
In the BETonMACE clinical study, a total of N=298 patients (N=150 in RVX-208 treatment group and N=148 in placebo treatment group) were administered an SGLT2 inhibitor (empagliflozin, dapagliflozin, or canagliflozin) in addition to RVX-208 with specified statin therapy (atorvastatin and rosuvastatin) and other guideline-defined treatments. Specifically, a total of 150 patients received both RVX-208 and an SGLT2 inhibitor; a total of 148 received an SGLT2 inhibitor, but no RVX-208; a total of 1062 received RVX-208, but no SGLT2 inhibitor; a total of 1058 received neither RVX-208 or an SGLT2 inhibitor.
Patients who were randomized and received at least one dose of SGLT2 treatment while actively receiving study drug (RVX-208 or placebo) were counted as those receiving a combination of SGLT2 treatment with either RVX-208 or placebo. Patients receiving more than one drug therapy within the SGLT2 inhibitor class were counted only once based upon whichever drug therapy patients continued taking at the end of treatment with study drug (RVX-208 or placebo). In cases where patients were receiving more than one drug therapy within the SGLT2 inhibitor class at the end of treatment with study drug, whichever SGLT2 inhibitor therapy was received for longer was counted.
Estimated glomerular filtration rate (eGFR) was calculated by the central lab using serum creatinine values and the Cockcroft-Gault formula. Serum creatinine was collected as part of the chemistry panel at the following time points: baseline, week 24, week 52, week 76, week 100, and last visit on treatment (LVT). The Cockcroft-Gault formula requires the input of an individual's age, sex, and weight. The last visit on treatment (LVT) timepoint represented the longest study exposure duration for patients receiving RVX-208 or placebo with and without SGLT2 inhibitors and is the focus of this analysis. The median time to LVT (and study drug exposure) for patients with a baseline and LVT measurements for eGFR administered an SGLT2 inhibitor (N=298) was 742 days (2.03 years). For the patients treated with a SGLT2 inhibitor and RVX-208 (N=150), the median time to LVT was 748 days (2.05 years) and for the patients treated with a SGLT2 inhibitor and received placebo (N=148), the median time to LVT was 734 days (2.01 years). No statistical difference was observed between the duration of study drug exposure, indicating a balance was observed between treatment groups. At the LVT timepoint, a total of N=121 patients in the apabetalone treatment group and N=122 patients in the placebo group had eGFR measurements. […]

COc1cc(OC)c2c(=O)[nH]c(-c3cc(C)c(OCCO)c(C)c3)nc2c1 [RVX-208, 2-(4-(2-hydroxyethoxy)-3,5-dimethylphenyl)-5,7-dimethoxyquinazolin-4(3H)-one]
increase in eGFR [1]: 3.4% | effect on eGFR versus placebo [2]: did not demonstrate the ability to statistically improve eGFR versus placebo | effect on eGFR / renal function ([3]; BETonMACE post-hoc, T2DM patients with a recent ACS): not able to increase median or mean eGFR levels | median eGFR at last visit on treatment (LVT) ([3]; T2DM patients with recent ACS, on statin, RVX-208 100 mg orally twice daily where given, at LVT (median about 2 years)): 96 mL/min | median eGFR at baseline ([3]; T2DM patients with recent ACS, on statin, at baseline): 97 mL/min | median change of eGFR from baseline to LVT ([3]; T2DM patients with recent ACS, FIG. 3): −3.2 mL/min/1.73 m^2 | mean change of eGFR from baseline to LVT ([3]; T2DM patients with recent ACS, FIG. 4): −3.3 mL/min/1.73 m^2 | median eGFR slope from baseline to LVT ([3]; eGFR difference baseline to LVT divided by number of treatment days, monotherapy groups): −0.004
